In article PMC6364417, “Kinase inhibitor library screening identifies synergistic drug combinations effective in sensitive and resistant melanoma cells” (Journal of Experimental & Clinical Cancer Research : CR, 2019):

Columns and labels:
Assay in all cases: Kinase inhibitor library screening, PrestoBlue cell viability, 1 or 10 μM, 72 h
A375 cells (parental) = conditions: A375 Parental, 72 h
[1] = test system: A375-GP cells (Dabrafenib-resistant); conditions: A375 GP, 72 h; for cell viability, A375 GP, 1μΜ / cell viability, A375 GP, 10μΜ: in %
[2] = test system: 501Mel-XP cells (Vemurafenib-resistant); conditions: 501Mel XP, 72 h
501Mel cells (parental) = conditions: 501Mel Parental, 72 h
How it was run: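 Each compound was applied to parental melanoma cells and to derivatives made resistant to Vemurafenib or Dabrafenib. After treatment, viability was read with PrestoBlue on a plate reader and expressed as % of untreated cells, with each line run at least in duplicate.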

[3] = test system: IGR37-GP cells (Dabrafenib-resistant); conditions: IGR37 GP, 72 h
[4] = test system: IGR37-XP cells (Vemurafenib-resistant); conditions: IGR37 XP, 72 h
IGR37 cells (parental) = conditions: IGR37 Parental, 72 h
[5] = test system: 501Mel-GP cells (Dabrafenib-resistant); conditions: 501Mel GP, 72 h
[6] = test system: A375-XP cells (Vemurafenib-resistant); conditions: A375 XP, 72 h; for cell viability, A375 XP, 1μΜ / cell viability, A375 XP, 10μΜ: in %

CC(=O)Nc1cccc(-n2c(=O)n(C3CC3)c(=O)c3c(Nc4ccc(I)cc4F)n(C)c(=O)c(C)c32)c1 [GSK1120212 (Trametinib)]
cell viability, A375 Parental, 1μΜ (A375 cells (parental); 1μΜ, in %): 21.7
cell viability, A375 Parental, 10μΜ (A375 cells (parental); 10μΜ, in %): 21.8
cell viability, A375 GP, 1μΜ ([1]; 1μΜ): 18.8
cell viability, A375 GP, 10μΜ ([1]; 10μΜ): 16.2
cell viability, 501Mel XP, 1μΜ ([2]; 1μΜ, in %): 75.6
cell viability, 501Mel XP, 10μΜ ([2]; 10μΜ, in %): 62.1
cell viability, 501Mel Parental, 1μΜ (501Mel cells (parental); 1μΜ, in %): 55.4
cell viability, 501Mel Parental, 10μΜ (501Mel cells (parental); 10μΜ, in %): 64.9
cell viability, IGR37 GP, 10μΜ ([3]; 10μΜ): 56.9%
cell viability, IGR37 GP, 1μΜ ([3]; 1μΜ, in %): 89.3
cell viability, IGR37 XP, 10μΜ ([4]; 10μΜ): 22.1%
cell viability, IGR37 XP, 1μΜ ([4]; 1μΜ, in %): 38.3
cell viability, IGR37 Parental, 1μΜ (IGR37 cells (parental); 1μΜ, in %): 37.2
cell viability, IGR37 Parental, 10μΜ (IGR37 cells (parental); 10μΜ, in %): 36.1
cell viability, 501Mel GP, 1μΜ ([5]; 1μΜ, in %): 90.4
cell viability, 501Mel GP, 10μΜ ([5]; 10μΜ, in %): 77.4
cell viability, A375 XP, 1μΜ ([6]; 1μΜ): 14.9
cell viability, A375 XP, 10μΜ ([6]; 10μΜ): 14.6

CCc1cc(Nc2nccc(-c3c(-c4ccc(OC)c(C(=O)Nc5c(F)cccc5F)c4)nc4ccccn34)n2)c(OC)cc1N1CCC(N2CCN(S(C)(=O)=O)CC2)CC1 [GSK1904529A]
cell viability, A375 Parental, 10μΜ (A375 cells (parental); 10μΜ, in %): 94.0
cell viability, A375 GP, 1μΜ ([1]; 1μΜ): 98.4
cell viability, A375 GP, 10μΜ ([1]; 10μΜ): 92.6
cell viability, 501Mel XP, 1μΜ ([2]; 1μΜ, in %): 93.0
cell viability, 501Mel XP, 10μΜ ([2]; 10μΜ, in %): 82.3
cell viability, 501Mel Parental, 1μΜ (501Mel cells (parental); 1μΜ, in %): 99.4
cell viability, 501Mel Parental, 10μΜ (501Mel cells (parental); 10μΜ, in %): 98.3
cell viability, IGR37 GP, 10μΜ ([3]; 10μΜ): 62.6%
cell viability, IGR37 GP, 1μΜ ([3]; 1μΜ, in %): 98.3
cell viability, IGR37 XP, 10μΜ ([4]; 10μΜ): 20.4%
cell viability, IGR37 XP, 1μΜ ([4]; 1μΜ, in %): 98.9
cell viability, IGR37 Parental, 1μΜ (IGR37 cells (parental); 1μΜ, in %): 114.5
cell viability, IGR37 Parental, 10μΜ (IGR37 cells (parental); 10μΜ, in %): 96.7
cell viability, 501Mel GP, 1μΜ ([5]; 1μΜ, in %): 109.2
cell viability, 501Mel GP, 10μΜ ([5]; 10μΜ, in %): 89.5
cell viability, A375 XP, 1μΜ ([6]; 1μΜ): 104.6
cell viability, A375 XP, 10μΜ ([6]; 10μΜ): 97.7

COc1ncc(-c2ccc3nccc(-c4ccnnc4)c3c2)cc1NS(=O)(=O)c1ccc(F)cc1F [GSK2126458]
Cell viability in kinase inhibitor library screening, A375 Parental, 10μΜ (A375 cells (parental); 10μΜ): 3.2
Cell viability in kinase inhibitor library screening, A375 Parental, 1μΜ (A375 cells (parental); 1μΜ): 15.7
Cell viability in kinase inhibitor library screening, A375 GP, 1μΜ ([1]; 1μΜ): 14.4
Cell viability in kinase inhibitor library screening, A375 GP, 10μΜ ([1]; 10μΜ): 3.9
Cell viability in kinase inhibitor library screening, 501Mel XP, 1μΜ ([2]; 1μΜ, in %): 2.1
Cell viability in kinase inhibitor library screening, 501Mel XP, 10μΜ ([2]; 10μΜ, in %): 0.8
Cell viability in kinase inhibitor library screening, 501Mel Parental, 1μΜ (501Mel cells (parental); 1μΜ, in %): 3.1
Cell viability in kinase inhibitor library screening, 501Mel Parental, 10μΜ (501Mel cells (parental); 10μΜ, in %): 0.9
Cell viability in kinase inhibitor library screening, IGR37 GP, 10μΜ ([3]; 10μΜ): 2.7%
Cell viability in kinase inhibitor library screening, IGR37 GP, 1μΜ ([3]; 1μΜ, in %): 9.1
Cell viability in kinase inhibitor library screening, IGR37 XP, 10μΜ ([4]; 10μΜ): 1.1%
Cell viability in kinase inhibitor library screening, IGR37 XP, 1μΜ ([4]; 1μΜ, in %): 7.6
Cell viability in kinase inhibitor library screening, IGR37 Parental, 1μΜ (IGR37 cells (parental); 1μΜ, in %): 7.2
Cell viability in kinase inhibitor library screening, IGR37 Parental, 10μΜ (IGR37 cells (parental); 10μΜ, in %): 0.469
Cell viability in kinase inhibitor library screening, 501Mel GP, 1μΜ ([5]; 1μΜ, in %): 6.0
Cell viability in kinase inhibitor library screening, 501Mel GP, 10μΜ ([5]; 10μΜ, in %): 0.6
Cell viability in kinase inhibitor library screening, A375 XP, 1μΜ ([6]; 1μΜ): 13.7
Cell viability in kinase inhibitor library screening, A375 XP, 10μΜ ([6]; 10μΜ): 2.8

CN1CCN(C2CCN(C(=O)Nc3cc(Oc4ccc(NC(=O)C5(C(=O)Nc6ccc(F)cc6)CC5)c(F)c4)ccn3)CC2)CC1 [Golvatinib (E7050)]
cell viability (kinase inhibitor library screening) (A375 cells (parental); 10μΜ): 70.5%
cell viability (kinase inhibitor library screening) (A375 cells (parental); 1μΜ): 93.1%
cell viability (kinase inhibitor library screening) ([1]; 1μΜ): 103.0%
cell viability (kinase inhibitor library screening) ([1]; 10μΜ): 53.0%
cell viability (kinase inhibitor library screening) ([2]; 1μΜ): 66.2%
cell viability (kinase inhibitor library screening) ([2]; 10μΜ): -0.363%
cell viability (kinase inhibitor library screening) (501Mel cells (parental); 1μΜ): 96.5%
cell viability (kinase inhibitor library screening) (501Mel cells (parental); 10μΜ): 0.148%
cell viability (kinase inhibitor library screening) ([3]; 1μΜ): 92.1%
cell viability (kinase inhibitor library screening) ([3]; 10μΜ): 49.6%
cell viability (kinase inhibitor library screening) ([4]; 1μΜ): 95.2%
cell viability (kinase inhibitor library screening) ([4]; 10μΜ): 10.4%
cell viability (kinase inhibitor library screening) (IGR37 cells (parental); 1μΜ): 99.0%
cell viability (kinase inhibitor library screening) (IGR37 cells (parental); 10μΜ): 18.3%
cell viability (kinase inhibitor library screening) ([5]; 1μΜ): 81.2%
cell viability (kinase inhibitor library screening) ([5]; 10μΜ): -0.26%
cell viability (kinase inhibitor library screening) ([6]; 1μΜ): 99.6%
cell viability (kinase inhibitor library screening) ([6]; 10μΜ): 65.0%
